According to patent US12685311B2, “Environmentally friendly biocidal quaternized amine compound” (Baker Hughes Oilfield Operations LLC, priority 2023, dated 2026):

System: microbial population (oilfield produced waters containing a range of microbes)
Experiment: ATP quantification of oilfield produced waters after biocide treatment
Assay type: cell-based
Conditions: 400 ppm, after four hours, oilfield produced waters amended with nutrients, versus untreated control
Description: Laboratory tests were performed to observe the environmentally friendly biocide of one embodiment for its ability to reduce microbial populations. The performance of the environmentally friendly biocide was further compared with that of two non-biodegradable biocidal quaternary amine compounds: alkyldimethylbenxylammonium chloride (ADBAC) and didecyldimethylammonium chloride (DDAC).
Test bottles were prepared with oilfield produced waters amended with nutrients containing a range of microbes. These bottles were treated with 400 ppm of either di(dimethyl(alkyl)ammonium chloride) ethanoyloxy-oxo, ADBAC, or DDAC, with one test bottle left as an untreated control. After four hours, ATP quantification and serial dilution using Modified Postgate's B media were performed for the various test bottles.

Molecule	reduction of the microbial population via ATP [%]
alkyldimethylbenxylammonium chloride [ADBAC]	99.16
CCCCCCCCCC[N+](C)(C)CCCCCCCCCC.[Cl-] [DDAC, didecyldimethylammonium chloride]	99.06
di(dimethyl(alkyl)ammonium chloride) ethanoyloxy-oxo	96.79
